Laboratory results: ChEMBL document CHEMBL1201862, “PubChem BioAssay data set” (2004)
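Growth conditions: 96-well plates. Treatment: test compound, 48 hours, 5 concentrations. Analysis: linear interpolation between bracketing concentrations; unreached endpoints set to highest concentration. At the GI50, growth is halved.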 Calls of active or inactive are those of the source. Rule as the data show it: active = GI50 up to about 1.1 µM and inactive = higher.

Columns and labels:
Test in all cases: growth of human tumour cells (NCI), 48 h
NCI-H23 = system: NCI-H23
MDA-N = system: MDA-N
PC-3 = system: PC-3
SF-268 = system: SF-268
A549 = system: A549
IGROV-1 = system: IGROV-1
TK-10 = system: TK-10
NCI-H522 = system: NCI-H522
CAKI-1 = system: CAKI-1
SK-MEL-28 = system: SK-MEL-28
786-0 = system: 786-0
RPMI-8226 = system: RPMI-8226
SF-295 = system: SF-295
NCI-H226 = system: NCI-H226
SW-620 = system: SW-620
K562 = system: K562
COLO 205 = system: COLO 205
HOP-62 = system: HOP-62
T47D = system: T47D
HL-60 = system: HL-60

## Nn1c(CCCCCCCCc2nnc(COc3c(O)ccc4ccccc34)n2N)nnc1COc1c(O)ccc2ccccc12
NCI-H23
  GI50: > 100 µM (inactive)
MDA-N
  GI50: > 100 µM (inactive)
PC-3
  GI50: > 100 µM (inactive)
SF-268
  GI50: > 100 µM (inactive)
A549
  GI50: > 100 µM (inactive)
IGROV-1
  GI50: > 100 µM (inactive)
TK-10
  GI50: > 100 µM (inactive)
NCI-H522
  GI50: > 100 µM (inactive)
CAKI-1
  GI50: 27.2 µM (inactive)
SK-MEL-28
  GI50: > 100 µM (inactive)
786-0
  GI50: 99.3 µM (inactive)
RPMI-8226
  GI50: 63.1 µM (inactive)
SF-295
  GI50: > 100 µM (inactive)
NCI-H226
  GI50: > 100 µM (inactive)
SW-620
  GI50: > 100 µM (inactive)
K562
  GI50: > 100 µM (inactive)
COLO 205
  GI50: > 100 µM (inactive)

## CC(C)Oc1cccc(N2C(NCCc3c[nH]c4ccccc34)=Nc3ccncc3S2(=O)=O)c1
NCI-H23
  GI50: 33.1 µM (inactive)
PC-3
  GI50: 6.4 µM (inactive)
SF-268
  GI50: 15.7 µM (inactive)
A549
  GI50: 40.9 µM (inactive)
IGROV-1
  GI50: 41.7 µM (inactive)
TK-10
  GI50: 19.2 µM (inactive)
NCI-H522
  GI50: 7.01 µM (inactive)
CAKI-1
  GI50: 42.1 µM (inactive)
SK-MEL-28
  GI50: 8.43 µM (inactive)
786-0
  GI50: 2.09 µM (inactive)
HOP-62
  GI50: > 100 µM (inactive)
RPMI-8226
  GI50: 5.51 µM (inactive)
SF-295
  GI50: 20.7 µM (inactive)
T47D
  GI50: 7.21 µM (inactive)
NCI-H226
  GI50: > 100 µM (inactive)
SW-620
  GI50: 8.36 µM (inactive)
HL-60
  GI50: 3.93 µM (inactive)
K562
  GI50: 3.82 µM (inactive)
COLO 205
  GI50: 1.79 µM (inactive)

## COCn1cnc2c(=O)n(-c3ccc(C)cc3)c(=S)n(-c3ccc(C)cc3)c21
NCI-H23
  GI50: > 100 µM (inactive)
PC-3
  GI50: > 100 µM (inactive)
SF-268
  GI50: > 100 µM (inactive)
A549
  GI50: > 100 µM (inactive)
IGROV-1
  GI50: > 100 µM (inactive)
TK-10
  GI50: > 100 µM (inactive)
NCI-H522
  GI50: > 100 µM (inactive)
CAKI-1
  GI50: > 100 µM (inactive)
SK-MEL-28
  GI50: > 100 µM (inactive)
786-0
  GI50: > 100 µM (inactive)
HOP-62
  GI50: > 100 µM (inactive)
RPMI-8226
  GI50: > 100 µM (inactive)
SF-295
  GI50: > 100 µM (inactive)
T47D
  GI50: > 100 µM (inactive)
NCI-H226
  GI50: > 100 µM (inactive)
SW-620
  GI50: > 100 µM (inactive)
HL-60
  GI50: > 100 µM (inactive)
K562
  GI50: > 100 µM (inactive)
COLO 205
  GI50: > 100 µM (inactive)

## Cc1c(/C=N\NC(=S)N2CCN(C(=S)N/N=C\c3c(C)n(C)n(-c4ccccc4)c3=O)CC2)c(=O)n(-c2ccccc2)n1C
NCI-H23
  GI50: 50.9 µM (inactive)
PC-3
  GI50: 32.9 µM (inactive)
SF-268
  GI50: > 100 µM (inactive)
A549
  GI50: 47.9 µM (inactive)
TK-10
  GI50: 5.7 µM (inactive)
NCI-H522
  GI50: 60.7 µM (inactive)
CAKI-1
  GI50: 82.6 µM (inactive)
786-0
  GI50: 33.7 µM (inactive)
HOP-62
  GI50: 37.2 µM (inactive)
SF-295
  GI50: 28.4 µM (inactive)
T47D
  GI50: 36.1 µM (inactive)
NCI-H226
  GI50: > 100 µM (inactive)
SW-620
  GI50: 33.2 µM (inactive)
COLO 205
  GI50: > 100 µM (inactive)

## CCOC(=O)c1c(NC(=O)OC)c(C#N)c2n1CCCCC2
NCI-H23
  GI50: > 100 µM (inactive)
PC-3
  GI50: > 100 µM (inactive)
SF-268
  GI50: > 100 µM (inactive)
IGROV-1
  GI50: > 100 µM (inactive)
TK-10
  GI50: > 100 µM (inactive)
CAKI-1
  GI50: > 100 µM (inactive)
SK-MEL-28
  GI50: > 100 µM (inactive)
786-0
  GI50: > 100 µM (inactive)
HOP-62
  GI50: > 100 µM (inactive)
RPMI-8226
  GI50: > 100 µM (inactive)
SF-295
  GI50: > 100 µM (inactive)
T47D
  GI50: > 100 µM (inactive)
NCI-H226
  GI50: > 100 µM (inactive)
SW-620
  GI50: > 100 µM (inactive)
HL-60
  GI50: > 100 µM (inactive)
K562
  GI50: > 100 µM (inactive)
COLO 205
  GI50: > 100 µM (inactive)

## O=S(=O)(c1ccc(NC(=S)N/N=C/c2ccccc2O)cc1)N1CCCCC1
NCI-H23
  GI50: 0.281 µM (active)
PC-3
  GI50: 0.191 µM (active)
SF-268
  GI50: 0.0446 µM (active)
A549
  GI50: 0.255 µM (active)
IGROV-1
  GI50: 1.73 µM (inactive)
TK-10
  GI50: < 0.0457 µM (active)
NCI-H522
  GI50: 1.61 µM (inactive)
SK-MEL-28
  GI50: 1.21 µM (inactive)
786-0
  GI50: 0.188 µM (active)
HOP-62
  GI50: 0.114 µM (active)
RPMI-8226
  GI50: 0.214 µM (active)
SF-295
  GI50: 0.0656 µM (active)
T47D
  GI50: 0.419 µM (active)
NCI-H226
  GI50: 0.151 µM (active)
SW-620
  GI50: < 0.01 µM (active)
K562
  GI50: 0.341 µM (active)
COLO 205
  GI50: 0.773 µM (active)

## CCCCCCC(=O)c1ccc2ccccc2c1O
NCI-H23
  GI50: 92.5 µM (inactive)
PC-3
  GI50: 61 µM (inactive)
SF-268
  GI50: 34.2 µM (inactive)
IGROV-1
  GI50: 27.4 µM (inactive)
TK-10
  GI50: > 100 µM (inactive)
CAKI-1
  GI50: 43.2 µM (inactive)
SK-MEL-28
  GI50: > 100 µM (inactive)
786-0
  GI50: 38.8 µM (inactive)
HOP-62
  GI50: > 100 µM (inactive)
RPMI-8226
  GI50: 98.4 µM (inactive)
SF-295
  GI50: 34.5 µM (inactive)
T47D
  GI50: 34.8 µM (inactive)
NCI-H226
  GI50: 40.1 µM (inactive)
SW-620
  GI50: 64.7 µM (inactive)
HL-60
  GI50: 36.4 µM (inactive)
K562
  GI50: > 100 µM (inactive)
COLO 205
  GI50: 66.1 µM (inactive)

## CN(CCO)CCCC1COc2ccccc2O1 (stereo not given)
NCI-H23
  GI50: > 100 µM (inactive)
MDA-N
  GI50: > 100 µM (inactive)
PC-3
  GI50: > 100 µM (inactive)
SF-268
  GI50: 20.7 µM (inactive)
A549
  GI50: > 100 µM (inactive)
IGROV-1
  GI50: > 100 µM (inactive)
TK-10
  GI50: > 100 µM (inactive)
NCI-H522
  GI50: > 100 µM (inactive)
CAKI-1
  GI50: > 100 µM (inactive)
SK-MEL-28
  GI50: > 100 µM (inactive)
786-0
  GI50: > 100 µM (inactive)
HOP-62
  GI50: > 100 µM (inactive)
SF-295
  GI50: 51.3 µM (inactive)
NCI-H226
  GI50: > 100 µM (inactive)
SW-620
  GI50: > 100 µM (inactive)
HL-60
  GI50: > 100 µM (inactive)
K562
  GI50: > 100 µM (inactive)
COLO 205
  GI50: > 100 µM (inactive)

## COc1c(Br)cc(/C=C(\C#N)c2cccnc2)cc1Br
NCI-H23
  GI50: 32.7 µM (inactive)
MDA-N
  GI50: > 100 µM (inactive)
PC-3
  GI50: 45.4 µM (inactive)
SF-268
  GI50: 67.6 µM (inactive)
A549
  GI50: 53.1 µM (inactive)
IGROV-1
  GI50: 63 µM (inactive)
TK-10
  GI50: 61.7 µM (inactive)
NCI-H522
  GI50: 42.1 µM (inactive)
CAKI-1
  GI50: > 100 µM (inactive)
SK-MEL-28
  GI50: 50.5 µM (inactive)
786-0
  GI50: > 100 µM (inactive)
HOP-62
  GI50: 54.8 µM (inactive)
RPMI-8226
  GI50: > 100 µM (inactive)
SF-295
  GI50: 52.7 µM (inactive)
NCI-H226
  GI50: 33.7 µM (inactive)
SW-620
  GI50: 38.7 µM (inactive)
HL-60
  GI50: 36.2 µM (inactive)
K562
  GI50: 80.9 µM (inactive)
COLO 205
  GI50: 34.5 µM (inactive)

## Cc1nnc2sc(-c3ccc(N)cc3)nn12
NCI-H23
  GI50: > 100 µM (inactive)
PC-3
  GI50: > 100 µM (inactive)
SF-268
  GI50: > 100 µM (inactive)
A549
  GI50: > 100 µM (inactive)
IGROV-1
  GI50: > 100 µM (inactive)
TK-10
  GI50: > 100 µM (inactive)
NCI-H522
  GI50: > 100 µM (inactive)
CAKI-1
  GI50: > 100 µM (inactive)
SK-MEL-28
  GI50: > 100 µM (inactive)
786-0
  GI50: > 100 µM (inactive)
HOP-62
  GI50: > 100 µM (inactive)
RPMI-8226
  GI50: > 100 µM (inactive)
SF-295
  GI50: > 100 µM (inactive)
T47D
  GI50: > 100 µM (inactive)
NCI-H226
  GI50: > 100 µM (inactive)
SW-620
  GI50: > 100 µM (inactive)
HL-60
  GI50: > 100 µM (inactive)
K562
  GI50: > 100 µM (inactive)
COLO 205
  GI50: > 100 µM (inactive)

## CN(C)CCCN1c2ccc(O)cc2Sc2ccc(Cl)cc21 [7-HYDROXYCHLORPROMAZINE]
NCI-H23
  GI50: 17.7 µM (inactive)
PC-3
  GI50: 5.33 µM (inactive)
SF-268
  GI50: 6.34 µM (inactive)
A549
  GI50: 13.5 µM (inactive)
IGROV-1
  GI50: 9.84 µM (inactive)
TK-10
  GI50: 12.3 µM (inactive)
NCI-H522
  GI50: 11.4 µM (inactive)
CAKI-1
  GI50: 4.2 µM (inactive)
SK-MEL-28
  GI50: 11.1 µM (inactive)
786-0
  GI50: 11.1 µM (inactive)
HOP-62
  GI50: 15.1 µM (inactive)
RPMI-8226
  GI50: 4.5 µM (inactive)
SF-295
  GI50: 15.3 µM (inactive)
T47D
  GI50: 21 µM (inactive)
NCI-H226
  GI50: 11.3 µM (inactive)
SW-620
  GI50: 17.5 µM (inactive)
HL-60
  GI50: 13.9 µM (inactive)
K562
  GI50: 3.86 µM (inactive)
COLO 205
  GI50: 20.8 µM (inactive)
